ChEMBL document CHEMBL4017543, “Inhibitors to Overcome Secondary Mutations in the Stem Cell Factor Receptor KIT” (J Med Chem, 2017)
Calls of active or inactive are those of the source. The rule behind the calls is not given here.

Legend:
[1] = biological target: Mast/stem cell growth factor receptor Kit (Homo sapiens, UniProt P10721, V559D/T670I)
[2] = system: GISTT1; test: Cytotoxicity against human GISTT1 cells assessed as cell growth inhibition after 72 hrs by CellTiterGlo assay; type: functional; settings: GISTT1, 72 h
[3] = system: GISTT1; test: Cytotoxicity against human GISTT1 cells harboring KIT T670I mutant assessed as cell growth inhibition after 72 hrs by CellTiterGlo assay; type: functional; settings: GISTT1, 72 h
[4] = system: Mast/stem cell growth factor receptor Kit (Homo sapiens), P10721 [V654A]; settings: GIST430
Chain of Mast/stem cell growth factor receptor Kit (Homo sapiens), P10721 [V654A] (P10721 whole entry V654A): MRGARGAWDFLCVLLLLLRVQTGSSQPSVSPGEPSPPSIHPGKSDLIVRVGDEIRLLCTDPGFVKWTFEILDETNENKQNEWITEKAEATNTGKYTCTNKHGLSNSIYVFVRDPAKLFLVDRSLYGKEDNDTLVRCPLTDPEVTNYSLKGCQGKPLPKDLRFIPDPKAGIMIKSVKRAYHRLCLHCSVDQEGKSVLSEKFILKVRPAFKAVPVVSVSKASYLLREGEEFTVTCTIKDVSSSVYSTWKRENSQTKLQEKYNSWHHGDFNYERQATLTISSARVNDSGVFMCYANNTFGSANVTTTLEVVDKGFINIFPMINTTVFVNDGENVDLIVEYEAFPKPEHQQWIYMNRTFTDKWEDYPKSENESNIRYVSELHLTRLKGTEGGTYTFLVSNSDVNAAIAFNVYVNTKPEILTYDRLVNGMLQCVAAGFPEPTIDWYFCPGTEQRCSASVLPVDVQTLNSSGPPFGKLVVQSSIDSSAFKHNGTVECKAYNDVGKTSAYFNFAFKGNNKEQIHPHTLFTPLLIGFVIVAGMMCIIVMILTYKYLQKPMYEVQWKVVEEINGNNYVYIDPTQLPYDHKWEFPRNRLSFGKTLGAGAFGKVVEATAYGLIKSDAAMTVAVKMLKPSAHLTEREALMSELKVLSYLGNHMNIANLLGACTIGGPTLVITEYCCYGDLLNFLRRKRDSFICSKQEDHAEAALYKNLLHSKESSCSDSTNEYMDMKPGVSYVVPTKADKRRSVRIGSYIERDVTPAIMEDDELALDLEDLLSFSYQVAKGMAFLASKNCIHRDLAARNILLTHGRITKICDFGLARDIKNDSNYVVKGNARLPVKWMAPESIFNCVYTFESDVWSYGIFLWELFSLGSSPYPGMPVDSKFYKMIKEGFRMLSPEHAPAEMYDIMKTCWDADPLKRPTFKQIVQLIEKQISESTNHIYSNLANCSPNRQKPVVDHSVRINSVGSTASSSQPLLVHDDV

[5] = biological target: Mast/stem cell growth factor receptor Kit (Homo sapiens, UniProt P10721); test: Inhibition of wild type KIT (unknown origin) using biotinylated poly-Glu-Tyr as substrate preincubated for 30 mins followed by substrate addition in presence of ATP by TR-FRET assay
Chain of Mast/stem cell growth factor receptor Kit (Homo sapiens, UniProt P10721) (P10721 whole entry): as the sequence (P10721 whole entry V654A) above, with A654V counted along it

[6] = Cytotoxicity against human GIST48B cells assessed as cell growth inhibition after 72 hrs by CellTiterGlo assay; type: cell-based; settings: for GI50 at 72 h: GIST48B cells; for GI50: gist48b, 72 h
[7] = system: GISTT1; test: Cytotoxicity against human GISTT1 cells harboring KIT D816E mutant assessed as cell growth inhibition after 72 hrs by CellTiterGlo assay; type: functional; settings: GISTT1, 72 h
[8] = biological target: Mast/stem cell growth factor receptor Kit (Homo sapiens, UniProt P10721, D816H); test: Inhibition of KIT D816H mutant (unknown origin) using biotinylated poly-Glu-Tyr as substrate preincubated for 30 mins followed by substrate addition in presence of ATP by TR-FRET assay
Chain of Mast/stem cell growth factor receptor Kit (Homo sapiens, UniProt P10721, D816H) (P10721 26-976 D816H limits assumed): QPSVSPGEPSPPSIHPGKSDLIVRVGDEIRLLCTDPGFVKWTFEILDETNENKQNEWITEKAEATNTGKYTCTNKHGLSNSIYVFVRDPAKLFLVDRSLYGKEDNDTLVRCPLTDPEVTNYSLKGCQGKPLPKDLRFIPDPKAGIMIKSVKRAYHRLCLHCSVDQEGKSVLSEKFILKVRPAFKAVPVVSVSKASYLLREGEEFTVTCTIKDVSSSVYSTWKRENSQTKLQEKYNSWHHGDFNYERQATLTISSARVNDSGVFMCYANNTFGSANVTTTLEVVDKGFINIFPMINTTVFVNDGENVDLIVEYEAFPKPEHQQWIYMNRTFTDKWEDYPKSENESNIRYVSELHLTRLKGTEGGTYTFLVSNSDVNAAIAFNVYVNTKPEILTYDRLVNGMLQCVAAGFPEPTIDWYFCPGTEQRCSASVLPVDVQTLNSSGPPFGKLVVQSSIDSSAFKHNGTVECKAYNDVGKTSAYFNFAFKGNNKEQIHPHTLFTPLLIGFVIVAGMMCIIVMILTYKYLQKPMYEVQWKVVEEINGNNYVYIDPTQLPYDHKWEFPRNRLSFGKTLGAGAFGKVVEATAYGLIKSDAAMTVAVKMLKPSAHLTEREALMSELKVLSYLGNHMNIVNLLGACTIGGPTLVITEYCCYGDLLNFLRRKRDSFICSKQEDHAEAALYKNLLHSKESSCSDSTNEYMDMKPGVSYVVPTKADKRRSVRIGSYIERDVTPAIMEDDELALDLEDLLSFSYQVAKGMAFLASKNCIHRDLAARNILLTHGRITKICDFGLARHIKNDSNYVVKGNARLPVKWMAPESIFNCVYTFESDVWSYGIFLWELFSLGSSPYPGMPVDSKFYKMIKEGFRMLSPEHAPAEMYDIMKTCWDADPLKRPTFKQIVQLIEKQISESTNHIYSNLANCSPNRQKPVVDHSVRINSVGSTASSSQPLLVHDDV

[9] = biological target: Mast/stem cell growth factor receptor Kit (Homo sapiens, UniProt P10721, V559D/V654A)
Chain of Mast/stem cell growth factor receptor Kit (Homo sapiens, UniProt P10721, V559D/V654A) (P10721 26-976 V559D/V654A limits assumed): as the sequence (P10721 26-976 D816H limits assumed) above, with V534D, V629A, H791D counted along it

[10] = biological target: Mast/stem cell growth factor receptor Kit (Homo sapiens, UniProt P10721, T670I/V559D)
Chain of Mast/stem cell growth factor receptor Kit (Homo sapiens, UniProt P10721, T670I/V559D) (P10721 26-976 V559D/T670I limits assumed): as the sequence (P10721 26-976 D816H limits assumed) above, with V534D, T645I, H791D counted along it

[11] = system: GISTT1; settings: Homo sapiens

Chain of Mast/stem cell growth factor receptor Kit (Homo sapiens, UniProt P10721, V559D/T670I) (P10721 26-976 V559D/T670I limits assumed): as the sequence (P10721 26-976 D816H limits assumed) above, with V534D, T645I, H791D counted along it

IC50 [1] | GI50 [4] | IC50 [5] | IC50 [8] | IC50 [9] | IC50 [10] | IC50 ([8]; read-out: IC50) | SMILES | GI50 [2] | GI50 [3] | GI50 at 72 h [6] | GI50 [7] | GI50 [6] | GI50 [11]
Not Active | 1640 nM | 2.3 nM | Not Active | Not Active |  |  | Cc1ccc(C(=O)Nc2ccc(CN3CCN(C)CC3)c(F)c2)cc1C#Cc1cccnc1 | 57 nM | 3290 nM | 12000 nM | 5360 nM |  | 
Not Active | 4030 nM | 3.3 nM | Not Active | Not Active |  |  | Cc1ccc(C(=O)Nc2ccc(CN3CCN(C)CC3)cc2)cc1C#Cc1cccnc1 | 150 nM | 6350 nM |  | 9610 nM | Not Active | 
 | 723 nM | 1.6 nM | Not Active | Not Active | 72 nM |  | Cc1ccc(C(=O)Nc2ccc(CN3CCN(C)CC3)c(C(F)(F)F)c2)cc1C#Cc1ccn2ccnc2c1 | 59 nM | 184 nM | 3040 nM | 2290 nM |  | 
 | 459 nM | 5.8 nM |  | Not Active | 150 nM | 2270 nM | Cc1ccc(C(=O)Nc2ccc(CN3CCN(C)CC3)c(C(F)(F)F)c2)cc1C#Cc1ccc(N)nn1 | 54 nM | 89 nM | 6250 nM | 580 nM |  | 
Not Active | 2000 nM | 121 nM | Not Active | Not Active |  |  | Cc1ccc(C(=O)Nc2ccc(CN3CCN(C)CC3)c(C(F)(F)F)c2)cc1C#Cc1ccc(OCc2ccccc2)cn1 | 121 nM | 4380 nM | 1860 nM |  |  | inactive
Not Active | 3900 nM | 6.8 nM | Not Active | Not Active |  |  | Cc1ccc(C(=O)Nc2ccc(CN3CCN(C)CC3)c(C(F)(F)F)c2)cc1I | 896 nM | 3340 nM | 4880 nM | 9890 nM |  | 
Not Active | inactive | 240 nM | Not Active | Not Active |  |  | Cc1ccc(C(=O)Nc2ccc(CN3CCN(C)CC3)cc2)cc1C#Cc1ccccn1 | 7100 nM | 12500 nM |  |  | Not Active | inactive
 | 564 nM | 6.7 nM | Not Active | Not Active | 159 nM |  | COc1cccnc1C#Cc1cc(C(=O)Nc2ccc(CN3CCN(C)CC3)c(C(F)(F)F)c2)ccc1C | 82 nM | 165 nM | 3790 nM | 991 nM |  | 
 |  |  |  |  |  |  | CCN(CC)CCNC(=O)c1c(C)[nH]c(/C=C2\C(=O)Nc3ccc(F)cc32)c1C [SUNITINIB] | 40 nM | 90 nM |  | 5880 nM | Not Active | 
Not Active | 2060 nM | 2.6 nM | Not Active | Not Active |  |  | Cc1ccc(C(=O)Nc2ccc(CN3CCN(C)CC3)cc2)cc1C#Cc1cnc(N)nc1 | 33 nM | 1220 nM | 6880 nM | 1270 nM |  | 
Not Active | 920 nM | 6.5 nM |  | Not Active |  | 1710 nM | Cc1ccc(C(=O)Nc2ccc(CN3CCN(C)CC3)c(F)c2)cc1C#Cc1cnc(N)nc1 | 31 nM | 1360 nM | 8280 nM | 904 nM |  | 
 | 697 nM | 3.5 nM | Not Active | Not Active | 116 nM |  | Cc1ccc(C(=O)Nc2ccc(CN3CCN(C)CC3)c(C(F)(F)F)c2)cc1C#Cc1ccccn1 | 55 nM | 97 nM | 3630 nM | 1670 nM |  | 
